Results reported in publication doi:10.1101/2025.01.23.634542, “Convergent Agonist and Heat Activation of Nociceptor TRPM3” (bioRxiv, 2025).

Tests used:
[1] = target: wild-type rabbit TRPM3 (rTRPM3) (Oryctolagus cuniculus, UniProt G1T6W8); test: Whole-cell patch-clamp agonist dose-response, wild-type TRPM3 in tsA cells; type: cell-based; conditions: WT TRPM3, whole-cell current at +80 mV
[2] = tested on: TRPM3 mutants at the interface between the MHR1/2 domain and the rib helix; test: Agonist sensitivity of mutants at the MHR1/2 domain-rib helix interface relative to wild type; type: cell-based, rabbit; conditions: interface mutants versus wild type, maximum fold
[3] = tested on: TRPM3 CIM0216 binding site mutants; test: CIM0216-induced whole-cell currents in CIM0216 binding site mutants; type: cell-based, rabbit; conditions: whole-cell currents at +140 mV, 22 °C (Fig. 1c)
Excerpt: Figure 1: TRPM3 activation by superagonist CIM0216. a, Structure of TRPM3 in complex with CIM0216, shown in cartoon representation and viewed parallel to the membrane. CIM0216 (green) is fitted into the cryo-EM density map (right panel). One subunit is highlighted in red, and the rib helix from the adjacent subunit is highlighted in cyan. b, Close-up view of the CIM0216 binding site, detailing key interactions. c, Whole-cell currents measured in tsA cells overexpressing wild-type TRPM3 or CIM0216 binding site mutants at 22 °C. […] CIM0216-induced current amplitudes at +140 mV were calculated by subtracting the steady-state current recorded before CIM0216 application from the steady-state current recorded after CIM0216 application. Each point represents a single cell (from left to right, n = 6, 4, 5, 4, 4, 4, 4, 4, 4, 5), with bars indicating the mean. Statistical analysis was performed using one-way ANOVA with Bonferroni’s post hoc test (***P < 0.001). d, Structural comparison of CIM0216-bound activated state (red) and apo resting state (blue), superimposed using the TMD (residues 848–1119). Root-mean-square deviations (r.m.s.d.) are shown for individual domains. Black arrows indicate the approximate direction of domain movements.

[4] = tested on: wild-type TRPM3; test: Primidone inhibition of heat-activated whole-cell currents, wild-type TRPM3; type: cell-based, rabbit; conditions: WT TRPM3, heat-activated whole-cell currents at 37 °C with primidone (Fig. 4d)
[5] = tested on: TRPM3 primidone binding site mutants; test: Primidone inhibition of PregS-induced currents in primidone binding site mutants; type: cell-based, rabbit; conditions: PregS-induced currents with and without primidone, 22 °C (Fig. 4c)

Sequence of wild-type rabbit TRPM3 (rTRPM3) (G1T6W8 entry or part of it): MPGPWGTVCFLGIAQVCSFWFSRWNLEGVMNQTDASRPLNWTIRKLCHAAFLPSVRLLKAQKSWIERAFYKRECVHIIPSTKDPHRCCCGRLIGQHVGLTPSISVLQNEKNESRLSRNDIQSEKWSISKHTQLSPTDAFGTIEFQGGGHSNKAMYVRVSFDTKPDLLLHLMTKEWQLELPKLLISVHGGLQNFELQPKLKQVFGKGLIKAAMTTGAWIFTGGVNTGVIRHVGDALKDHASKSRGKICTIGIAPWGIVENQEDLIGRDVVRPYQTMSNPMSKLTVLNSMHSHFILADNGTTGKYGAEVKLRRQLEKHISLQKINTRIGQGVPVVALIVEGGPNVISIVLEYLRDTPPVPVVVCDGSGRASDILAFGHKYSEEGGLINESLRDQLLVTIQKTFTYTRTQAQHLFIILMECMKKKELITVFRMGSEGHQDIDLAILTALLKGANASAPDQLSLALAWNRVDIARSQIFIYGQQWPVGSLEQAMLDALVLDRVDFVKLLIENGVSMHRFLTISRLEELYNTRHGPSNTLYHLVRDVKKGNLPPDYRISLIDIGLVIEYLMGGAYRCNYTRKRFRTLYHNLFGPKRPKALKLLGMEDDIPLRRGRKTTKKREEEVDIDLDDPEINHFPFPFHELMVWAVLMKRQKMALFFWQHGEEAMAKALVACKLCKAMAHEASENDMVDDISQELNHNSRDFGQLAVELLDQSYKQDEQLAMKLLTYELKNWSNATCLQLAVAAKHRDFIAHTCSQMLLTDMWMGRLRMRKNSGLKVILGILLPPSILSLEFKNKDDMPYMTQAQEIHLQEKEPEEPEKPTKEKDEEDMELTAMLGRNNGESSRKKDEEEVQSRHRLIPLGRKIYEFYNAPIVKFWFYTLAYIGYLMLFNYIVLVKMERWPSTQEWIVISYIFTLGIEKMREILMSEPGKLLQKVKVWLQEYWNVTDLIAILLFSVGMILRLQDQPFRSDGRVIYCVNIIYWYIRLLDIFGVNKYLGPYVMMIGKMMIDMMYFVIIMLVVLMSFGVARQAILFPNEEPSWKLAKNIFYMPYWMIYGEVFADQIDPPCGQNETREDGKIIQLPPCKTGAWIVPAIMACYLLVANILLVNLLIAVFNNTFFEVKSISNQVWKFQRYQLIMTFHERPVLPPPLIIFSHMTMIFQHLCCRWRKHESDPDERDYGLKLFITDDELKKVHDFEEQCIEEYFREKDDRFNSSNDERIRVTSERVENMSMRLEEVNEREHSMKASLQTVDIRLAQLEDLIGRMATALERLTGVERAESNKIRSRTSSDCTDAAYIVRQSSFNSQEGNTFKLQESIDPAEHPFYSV

Row | Compound | EC50 [1] [nM] | Higher sensitivity of mutants to agonist in dose-response experiments [2] | Effect of alanine substitutions at key binding residues on CIM0216-evoked currents [3] | Effect on heat-induced channel activation [4] | Effect of alanine substitutions at key binding residues on the inhibitory effect [5]
1 | Cc1cc(NC(=O)C(c2ccccc2)N2CCCc3ccccc32)no1 (stereo not drawn) [CIM0216] | 700 | up to 3 fold | diminished or abolished |  | 
2 | CCC1(c2ccccc2)C(=O)NCNC1=O [primidone] |  |  |  | effectively suppresses heat-induced channel activation | markedly reduced or abolished
3 | pregnenolone sulfate [PregS] |  | up to 13 fold |  |  | 
